#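 Tested at 5 concentrations; 48 h exposure; 96-well plates; endpoints linearly interpolated, else capped at highest concentration. At the TGI there is no net growth.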 Where a SMILES comes first, the peptide text is derived from it. The star is where a group is joined. Cbz = O=C(OCc1ccccc1)*
# Legend:
# Assay in all cases: inhibition of tumour cell growth, NCI panel, 48 h
# [1] = system: SF-268 CNS
# [2] = system: CCRF-CEM leukemia
# [3] = system: HOP-92 NSCLC
# [4] = system: SW-620 colon
# [5] = system: ACHN renal
# [6] = system: OVCAR-8 ovarian
# [7] = system: IGROV1 ovarian
# [8] = system: T-47D breast
# [9] = system: NCI-H522 lung
# [10] = system: HL-60(TB) leukemia
# [11] = system: MDA-N
# [12] = system: MCF7 breast
# [13] = system: UO-31 renal
# [14] = system: MDA-MB-435
# [15] = system: UACC-257 melanoma
# [16] = system: OVCAR-4 ovarian
# [17] = system: RXF 393 renal
# [18] = system: A498 renal
# [19] = system: CAKI-1 renal
# [20] = system: SF-539 CNS
Compound,TGI [1] [µM],TGI [2] [µM],TGI [3] [µM],TGI [4] [µM],TGI [5] [µM],TGI [6] [µM],TGI [7] [µM],TGI [8] [µM],TGI [9] [µM],TGI [10] [µM],TGI [11] [µM],TGI [12] [µM],TGI [13] [µM],TGI [14] [µM],TGI [15] [µM],TGI [16] [µM],TGI [17] [µM],TGI [18] [µM],TGI [19] [µM],TGI [20] [µM]
O=c1oc2c/c(=C\c3ccc([N+](=O)[O-])cc3)c(=O)c3cccc1c3-2,> 100,> 100,> 100,> 100,> 100,> 100,> 100,> 100,90.5,> 100,> 100,> 100,> 100,> 100,> 100,,,,,
CC(=O)NC1=N/C(=C\c2ccc(Cl)cc2)C(=O)N1/C=C1\C(=O)Oc2ccccc2C1=O,> 100,> 100,,> 100,> 100,> 100,> 100,> 100,> 100,> 100,> 100,> 100,,> 100,> 100,> 100,> 100,57.8,> 100,> 100
Nc1ccccc1N=Cc1cc2cc([N+](=O)[O-])ccc2s1,35.6,22.8,55.5,> 100,40.3,45.7,99.3,20.8,> 100,32,> 100,23,48.8,> 100,51.2,,28.7,32.5,> 100,27.4
CC1=C(CO)C2=C(C)C3(CC3)[C@@](C)(O)C(=O)C2=C1,2.57,> 28.6,0.639,> 30.4,1.52,0.631,0.529,2.48,0.682,1.79,3.25,1.87,,5.81,0.487,0.703,0.159,0.507,0.76,0.371
Nc1ccn([C@H]2CO[C@@H](CO)[C@@H]2O)c(=O)n1,> 100,> 100,> 100,> 100,> 100,,> 100,> 100,,,> 100,> 100,> 100,> 100,> 100,> 100,> 100,> 100,> 100,> 100
CC(C)(C)OC/C=C(/CO)[C@@H]1C=C[C@H](O)C1,> 100,> 100,,> 100,> 100,,,> 100,,,> 100,> 100,> 100,> 100,> 100,> 100,,> 100,> 100,> 100
Cc1cc(C(F)(F)F)cc(-n2nc(NS(=O)(=O)c3cc(C)c(Cl)cc3S)nc2N)n1,> 100,54.1,> 100,> 100,> 100,> 100,> 100,> 100,91.5,77.8,> 100,> 100,,> 100,> 100,> 100,> 100,56.1,> 100,
Cc1ccc(Cl)c2c(=O)c3ccc(N)cc3sc12,> 100,50.4,,,57.5,52.6,28.7,87.1,,20.4,> 100,55.4,41.2,,90.7,,59.3,36.8,> 100,45.1
COC(=O)C1=C(O)c2ccc(Cl)cc2S(=O)(=O)N1C,> 100,> 100,> 100,> 100,> 100,,> 100,> 100,> 100,> 100,> 100,> 100,,> 100,> 100,> 100,> 100,> 100,> 100,
CCCC(=O)N1CCN(c2ccc3c(c2)OC(C)O3)CC1 (stereo not drawn),> 100,> 100,> 100,> 100,> 100,> 100,> 100,> 100,> 100,,> 100,> 100,> 100,> 100,> 100,> 100,> 100,> 100,> 100,> 100
Cc1cc2c(cc1C(=O)c1ccc(N)cc1)OCO2,> 100,> 100,> 100,> 100,> 100,> 100,> 100,> 100,54.4,> 100,35.1,53.8,> 100,23.4,> 100,,,,66.4,79.7
O=C1NI(C#Cc2ccccc2)c2ccccc21,> 100,88.9,,> 100,,> 100,> 100,> 100,,> 100,> 100,94.3,> 100,> 100,> 100,> 100,,> 100,> 100,> 100
CC(NC(=O)C(NC(=O)OCc1ccccc1)C(C)C)C(=O)NCC(=O)O (stereo not drawn) (Cbz-Val-Ala-Gly-OH; configuration not given here),> 100,,> 100,> 100,> 100,> 100,> 100,> 100,> 100,,> 100,> 100,> 100,> 100,> 100,,> 100,,> 100,> 100
CCOc1nnnc2nc[nH]c12,> 100,,,> 100,,> 100,> 100,> 100,> 100,> 100,> 100,> 100,> 100,> 100,> 100,> 100,> 100,> 100,> 100,> 100
CCOC(=O)[C@H](C)OC(=O)[C@@](C)(NC(=O)c1ccccc1C(=O)OC)[C@@H]1NC=C(C(=O)OC)CS1,> 100,63.9,,> 100,> 100,> 100,> 100,> 100,> 100,,64.6,> 100,> 100,85.6,> 100,> 100,> 100,> 100,> 100,
CC(C)C(C/C=C1\CC(CO)(COC(=O)C(C)(C)C)OC1=O)C(C)C (stereo not drawn),27.7,42.7,25,17.1,24.4,31.1,29.4,34.9,29,,17.6,37.6,18.3,25.3,32.6,31.9,33.5,28.7,21.7,20.9
COC(=O)NC(C(F)(F)F)(C(F)(F)F)P1(=O)OCCCO1,73.8,> 100,> 100,82.4,54.2,83.3,68.8,84.3,34,51.1,70.3,> 100,65.6,46.1,,> 100,15,38,,43
c1ccc2c(c1)SCCC2NC1=NCCO1 (stereo not drawn),> 100,> 100,,> 100,> 100,> 100,> 100,> 100,> 100,> 100,> 100,> 100,> 100,> 100,,> 100,> 100,> 100,> 100,> 100
CCOC(=O)/C=C(/C(=O)OCC)n1cnc2c(=O)[nH]c(NC(C)=O)nc21,> 100,> 100,> 100,> 100,> 100,> 100,> 100,> 100,> 100,> 100,> 100,> 100,> 100,> 100,> 100,> 100,,> 100,> 100,> 100
CC(=O)N(C)CCc1c[nH]c2ccccc12,> 100,> 100,,> 100,> 100,> 100,> 100,> 100,> 100,> 100,> 100,> 100,> 100,> 100,> 100,> 100,,,> 100,> 100
O=C(Cn1c(-c2ccccc2)cc2ccccc21)N1CCCC1,> 100,,> 100,> 100,> 100,> 100,> 100,> 100,> 100,,> 100,> 100,> 100,,> 100,> 100,,,,
CC1CN=C(N(C(=O)Nc2ccc(Cl)c(Cl)c2)c2ccccc2)S1 (stereo not drawn),> 100,> 100,> 100,> 100,> 100,> 100,> 100,> 100,,,> 100,> 100,> 100,,> 100,> 100,,> 100,> 100,> 100
[N-]=[N+]=NCc1nc(N)c2c3c(sc2n1)CCCC3,6.23,> 100,1.77,> 100,14.1,3.72,2.92,63.3,,> 100,13.9,16.3,0.227,32,25.8,1.42,19.3,45,8.32,3.46
CC1=C(/C=C/C(C)=C/C=C/C(C)=C/C(=O)OC2CC(n3cc(F)c(=O)[nH]c3=O)OC2CO)C(C)(C)CCC1 (stereo not drawn),19.5,31.8,36.7,26.9,11.6,23.6,24.6,21.2,11.4,7.37,23.2,19.5,14.9,25.2,29.6,21.5,24,,16.9,0.54
Cn1c2c(c3ccccc31)CCN1C(=O)CN(C(=O)C3CCCCC3)CC21 (stereo not drawn),> 100,> 100,> 100,> 100,> 100,> 100,> 100,> 100,> 100,> 100,> 100,> 100,> 100,> 100,> 100,> 100,> 100,,,> 100
O=C(NNC(=O)c1ccccc1O)c1cccc(Br)c1,> 100,,,> 100,> 100,> 100,> 100,> 100,83.3,> 100,> 100,> 60.3,> 100,> 100,> 100,> 100,> 100,> 100,> 100,> 100
CC(=O)O[C@H]1CC[C@@]2(C)C(=CC[C@H]3[C@@H]4C/C(=C\c5ccc(N(C)C)cc5)[C@H](OC(C)=O)[C@@]4(C)CC[C@@H]32)C1,26.7,,,46.4,24.4,23.4,28.4,76.8,,41.2,36,26.6,27.7,,21.4,69,42.7,36.6,,27.9

# Source: PubChem BioAssay (NCI)
